Blank lines part the entries; values can stand above or below the molecule they belong to.
How the values were obtained:
[1] = described in literature (Schmidt et al. 1984); cited from earlier work
[2] = target: Recombinant Human (RH) DPP1 (Homo sapiens (Human), UniProt P53634); assay: Test A1: Fluorescence Assay for Recombinant Human (RH) DPP1; type: biochemical; conditions: Test A1, rhDPP1, H-Gly-Arg-AMC substrate (Examples 1-35)
Method: Test A1: Fluorescence Assay for Recombinant Human (RH) DPP1
The activity of DPP1 was determined by measuring the enzymatic release of aminomethyl coumarin (AMC) from the peptide substrate (H-Gly-Arg-AMC), which leads to an increase in fluorescence intensity at λex=350 nm and λem=450 nm. The assay was carried out in black 384 well plates in a final volume of 50 μl at 22° C. The assay conditions contained the following: 25 mM piperazine buffer pH 5.0; 50 mM NaCl, 5 mM DTT; 0.01% (v/v) Triton X-100; 100 μM H-Gly-Arg-AMC and rhDPP1 (˜50 pM). […] Routinely, inhibitors were pre-incubated with rhDPP1 for 30-60 min prior to the addition of the peptide substrate to start the reaction for a further 60 min at 22° C.

[3] = Test B: In-Vitro Competitive Aortic Tissue Binding Assay; parameters: species or system Han Wistar rats; conditions: 100 μM compound, competition with [14C]-labelled WO2010/128324 Ex. 3 in rat aortic homogenate; four categories
Method: To assist the design of DPP1 inhibitors with a decreased risk of binding to elastin rich tissues, such as the aorta, the in-vitro competitive aortic binding assay disclosed below (Test B) was developed to facilitate the selection process.
Test B: In-Vitro Competitive Aortic Tissue Binding Assay
Aortic homogenate was prepared from the thoracic aortae of Han Wistar rats. Freshly isolated to thoracic aortae were frozen, and later thawed and stripped of non-elastic material. […] Homogenate concentration was adjusted to 30 mg/mL in Puck's saline, and aliquots were stored at −80° C. until use. Positive and negative control compounds and test compounds were made up to 100 mM in DMSO, and added to 1 mL aliquots of aortic homogenate in Puck's saline for a final concentration of 100 μM. Homogenate samples were pre-incubated with test compounds at 37° C., rotating, overnight. [^14C]4-Amino-N-[(1S)-1-cyano-2-(4′-cyanobiphenyl-4-yl)ethyl]tetrahydro-2H-pyran-4-carboxamide was then added to all samples to a final concentration of 100 μM, and samples were incubated at 37° C., rotating, for a further 2 h. Protein was precipitated from each sample by the addition of 10 mL acetone, pre-chilled to −20° C. Samples were left overnight at −20° C. to allow complete precipitation. Precipitate was pelleted by centrifugation at 4,500×g at 4° C. for 20 min, an aliquot of supernatant was removed for analysis, and the remainder of the supernatant discarded. Precipitate was washed by resuspension in 10 mL 80% methanol in distilled water, and re-pelleted by centrifugation at 4,500×g at 4° C. for 20 min. […] After final wash, precipitate was air-dried, and dissolved overnight in 1 mL NCSII Tissue Solubiliser. 1 mL aliquots of supernatants were added to 5 mL Ultima Gold scintillation fluid (Perkin Elmer, Mass., U.S.A.), and 1 mL solubilised pellets were added to 5 mL Hionic-Fluor scintillation fluid (Perkin Elmer, Mass., U.S.A.). Radioactivity of samples was determined on a Beckman LS6500 multipurpose scintillation counter (Beckman Coulter, Ind., U.S.A.). […] Duplicate samples were tested for each compound on each experimental occasion, and at least two experiments were run for each test compound. […] 1-way ANOVA and Bonferroni's multiple comparison tests were performed to calculate significance of differences from vehicle control.

[4] = rat quantitative whole-body autoradiography (QWBA) studies; type: in vivo

Recombinant Human (RH) DPP1, sequence (P53634 231-394): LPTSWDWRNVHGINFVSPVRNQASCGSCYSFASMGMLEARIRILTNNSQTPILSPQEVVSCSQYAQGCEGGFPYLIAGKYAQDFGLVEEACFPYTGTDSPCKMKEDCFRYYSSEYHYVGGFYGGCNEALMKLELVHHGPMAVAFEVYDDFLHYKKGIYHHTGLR
Recombinant Human (RH) DPP1, sequence (P53634 25-143): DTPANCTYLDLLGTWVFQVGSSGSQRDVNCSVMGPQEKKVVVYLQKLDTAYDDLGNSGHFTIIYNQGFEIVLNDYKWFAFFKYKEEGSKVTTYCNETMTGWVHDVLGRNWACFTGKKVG
Recombinant Human (RH) DPP1, sequence (P53634 395-463): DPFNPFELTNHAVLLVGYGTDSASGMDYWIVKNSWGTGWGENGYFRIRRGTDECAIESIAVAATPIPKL

SMILES: CC(c1ccc(Cl)c(Cl)c1)N1N=C(N)CC1=O (stereo not drawn) [muzolimine]
- retention in the aorta in QWBA [1]: retained selectively in the aorta

SMILES: N#C[C@H](Cc1ccc(-c2ccc(C(N)=O)c(F)c2)cc1)NC(=O)[C@@H]1CNCCCO1 [Example 23, (2S)-N-[(1S)-2-(4′-Carbamoyl-3′-fluorobiphenyl-4-yl)-1-cyanoethyl]-1,4-oxazepane-2-carboxamide]
- DPP1 activity, pIC50 [2]: 7.17

SMILES: Cn1c(=O)oc2ccc(-c3ccc(C[C@@H](C#N)NC(=O)[C@@H]4CNCCCO4)cc3)cc21 [Example 2, (2S)—N-{(1S)-1-Cyano-2-[4-(3-methyl-2-oxo-2,3-dihydro-1,3-benzoxazol-5-yl)phenyl]ethyl}-1,4-oxazepane-2-carboxamide]
- Aortic Tissue Binding [3]: No binder

SMILES: CS(=O)(=O)c1ccc(-c2ccc(C[C@@H](C#N)NC(=O)[C@@H]3CNCCCO3)cc2)cc1 [Example 30, (2S)-N-{(1S)-1-Cyano-2-[4′-(methylsulfonyl)biphenyl-4-yl]ethyl}-1,4-oxazepane-2-carboxamide]
- DPP1 activity, pIC50 [2]: 7.43

Results, then the molecule that gave them:

- Aortic Tissue Binding [3]: Medium binder
SMILES: Cn1c(=O)oc2ccc(-c3ccc(C[C@@H](C#N)NC(=O)[C@@H]4CCCCN4)cc3)cc21 [WO2009/074829 (Example 96)]

- Aortic Tissue Binding [3]: Binder
SMILES: N#Cc1ccc(-c2ccc(C[C@@H](C#N)NC(=O)[C@@H]3CCCCN3)cc2)cc1 [WO2009/074829 (Example 24)]

- Aortic Tissue Binding [3]: Strong binder
SMILES: Cn1c(=O)oc2ccc(-c3ccc(C[C@@H](C#N)NC(=O)C4(N)CCOCC4)cc3)cc21 [WO2010/128324 (Example 17)]

- Aortic Tissue Binding [3]: Strong binder (reference)
- aortic retention in QWBA [4]: high level of aortic retention
SMILES: N#Cc1ccc(-c2ccc(C[C@@H](C#N)NC(=O)C3(N)CCOCC3)cc2)cc1 [WO2010/128324 (Ex. 3), 4-amino-N-[(1S)-1-cyano-2-(4′-cyanobiphenyl-4-yl)ethyl]tetrahydro-2H-pyran-4-carboxamide]

Source: patent US10669245B2, “Certain (2S)-N-[(1S)-1-cyano-2-phenylethyl]-1,4-oxazepane-2-carboxamides dipeptidyl peptidase 1 inhibitors” (AstraZeneca AB, priority 2014, dated 2020)
